Data from US7659394B2 (Pfizer Inc, priority 2004, dated 2010).

Key:
[1] = molecular target: T1, human seritonin transporter (Homo sapiens, UniProt P31645); experiment: hSERT receptor binding ([125I]-RTI-55 radioligand binding); settings: membranes of HEK-293 cells transfected with human seritonin transporter, IC50 converted to Ki by Cheng-Prusoff, read-out: SERT (Ki)
T1 construct: host or cells: HEK-293
Text: (§1) The ability of the compounds of this invention to bind to the hNET and serotonin SERT receptor can be determined using conventional radiolig and receptor binding assays. The receptors can be heterologously expressed in cell lines and experiments conducted in membrane preparations from the cell lines using procedures outlined below. IC50 concentrations can be determined by nonlinear regression of concentration-dependent reduction in specific binding. The Cheng-Prussoff equation can be used to convert the IC50 to Ki concentrations.
Cell pastes of HEK-293 cells transfected with the human seritonin transporter were supplied by the Pfizer Ann Arbor Protein Expression and Production group. […] Aliquots of membranes (5 mg/ml protein) were stored in liquid nitrogen until used.
(§2) The reaction was incubated by gentle agitation for 90 min at room temperature and was terminated by filtration through Whatman GF/C filter plates using a Brandel 96-well plate harvester. […] Test compounds were run in duplicate, and specific binding was defined as the difference between binding in the presence and absence of 10 μl M citalopram.
(§3) Excel and GraphPad Prism software were used for data calculation and analysis. IC50 values were converted to Ki values using the Cheng-Prusoff equation.

[2] = molecular target: T2, human norepinephrine transporter (Homo sapiens, UniProt P23975); experiment: hNET receptor binding ([125I]-RTI-55 radioligand binding); settings: membranes of HEK-293 cells transfected with human norepinephrine transporter, IC50 converted to Ki by Cheng-Prusoff, read-out: hNET (Ki)
T2 construct: host or cells: HEK-293
Text: as §1
Cell pastes of HEK-293 cells transfected with the human norepinephrine transporter were supplied by the Pfizer Ann Arbor Protein Expression and Production group. […] Aliquots of membranes (5 mg/ml protein) were stored in liquid nitrogen until used.
as §2, with “μM desipramine.” for “μl M citalopram.”
as §3

T2 sequence (P23975 whole entry): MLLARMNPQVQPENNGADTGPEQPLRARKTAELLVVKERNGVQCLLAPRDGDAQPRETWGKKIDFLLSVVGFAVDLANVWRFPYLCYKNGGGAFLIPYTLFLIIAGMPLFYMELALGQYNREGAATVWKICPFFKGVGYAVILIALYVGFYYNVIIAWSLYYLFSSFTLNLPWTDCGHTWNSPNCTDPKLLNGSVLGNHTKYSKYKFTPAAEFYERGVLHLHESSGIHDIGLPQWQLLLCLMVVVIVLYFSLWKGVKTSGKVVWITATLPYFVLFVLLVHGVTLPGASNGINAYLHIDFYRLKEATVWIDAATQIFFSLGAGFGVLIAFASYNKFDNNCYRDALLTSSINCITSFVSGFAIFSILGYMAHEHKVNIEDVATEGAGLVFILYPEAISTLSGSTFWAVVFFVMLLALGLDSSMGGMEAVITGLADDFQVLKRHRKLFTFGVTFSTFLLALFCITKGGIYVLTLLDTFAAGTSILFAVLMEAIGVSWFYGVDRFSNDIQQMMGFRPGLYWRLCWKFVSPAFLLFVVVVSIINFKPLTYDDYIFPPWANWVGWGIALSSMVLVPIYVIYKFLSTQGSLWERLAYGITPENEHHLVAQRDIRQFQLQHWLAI
T1 sequence (P31645 whole entry): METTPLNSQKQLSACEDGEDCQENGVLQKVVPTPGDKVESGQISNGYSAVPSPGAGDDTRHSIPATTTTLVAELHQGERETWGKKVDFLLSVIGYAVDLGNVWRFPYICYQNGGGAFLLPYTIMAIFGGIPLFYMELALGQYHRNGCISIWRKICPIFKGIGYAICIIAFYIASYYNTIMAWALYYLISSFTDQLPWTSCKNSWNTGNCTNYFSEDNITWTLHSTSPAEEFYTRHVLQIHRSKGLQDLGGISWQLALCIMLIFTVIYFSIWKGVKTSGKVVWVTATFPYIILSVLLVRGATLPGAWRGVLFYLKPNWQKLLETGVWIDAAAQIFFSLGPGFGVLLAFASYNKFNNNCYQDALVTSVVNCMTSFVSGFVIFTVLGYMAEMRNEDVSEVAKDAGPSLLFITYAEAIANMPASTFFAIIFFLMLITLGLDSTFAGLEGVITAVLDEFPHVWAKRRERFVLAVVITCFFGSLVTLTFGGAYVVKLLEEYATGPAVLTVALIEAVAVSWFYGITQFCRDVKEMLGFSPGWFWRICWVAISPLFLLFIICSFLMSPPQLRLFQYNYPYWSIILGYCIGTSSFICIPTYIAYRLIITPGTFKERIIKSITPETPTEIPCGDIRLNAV

Row | Structure (SMILES) | Ki [1] | Ki [2]
1 | CCOCc1ccccc1O[C@@H](c1ccccc1)[C@@H]1CNCCO1 [Example 63, (S)-2-[(S)-(2-Ethoxymethyl-phenoxy)-phenyl-methyl]-morpholine] | 2540 nM | 28 nM
2 | CN(C)c1ccccc1O[C@@H](c1ccccc1)[C@@H]1CNCCO1 [Example 64, (2S,3S)-Dimethyl-[2-(morpholin-2-yl-phenyl-methoxy)-phenyl]-amine] | ≥ 10000 nM | 119 nM
3 | Fc1ccc(Oc2ncccc2O[C@@H](c2ccccc2)[C@@H]2CNCCO2)cc1 [Example 65, (S)-2-{(S)-[2-(4-Fluoro-phenoxy)-pyridin-3-yloxy]-phenyl-methyl}-morpholine] | 1200 nM | 85 nM
4 | Fc1ccc([C@H](Oc2c(F)cccc2F)[C@H]2CNCCO2)cc1 [Example 66, (R)-2-[(S)-(2,6-Difluoro-phenoxy)-(4-fluoro-phenyl)-methyl]-morpholine] | 176 nM | 81 nM
5 | Brc1ccccc1O[C@@H](c1ccccc1)[C@H]1CNCCO1 [Example 67, (R)-2-[(S)-(2-Bromo-phenoxy)-phenyl-methyl]-morpholine] | 93 nM | 21 nM
6 | Fc1ccc(O[C@@H](c2ccccc2)[C@@H]2CNCCO2)c(F)c1 [Example 68, (S)-2-[(S)-(2,4-Difluoro-phenoxy)-phenyl-methyl]-morpholine] | 660 nM | 19 nM
7 | Fc1ccc(O[C@@H](c2ccccc2)[C@@H]2CNCCO2)cc1 [Example 69, (S)-2-[(S)-(4-Fluoro-phenoxy)-phenyl-methyl]-morpholine] | 1890 nM | 26 nM
8 | c1ccc([C@H](Oc2ccccc2C2CC2)[C@H]2CNCCO2)cc1 [Example 71, (R)-2-[(S)-(2-Cyclopropyl-phenoxy)-phenyl-methyl]-morpholine] | 65 nM | 50 nM
9 | Clc1ccccc1-c1ccccc1OCC1CNCCO1 (stereo not drawn) [Example 73, 2-(2′-Chloro-biphenyl-2-yloxymethyl)-morpholine] | ≥ 10000 nM | 595 nM
10 | COc1ccccc1-c1ccccc1OCC1CNCCO1 (stereo not drawn) [Example 74, 2-(2′-Methoxy-biphenyl-2-yloxymethyl)-morpholine] | ≥ 10000 nM | 55 nM
11 | Fc1ccc(-c2cc(F)ccc2OCC2CNCCO2)cc1 [Example 76, (R)- and (S)-2-(5,4′-Difluoro-biphenyl-2-yloxymethyl)-morpholine] | 349 nM | 64 nM
12 | c1ccc(Oc2ncccc2OC[C@H]2CNCCO2)cc1 [Example 77, (R)-2-(2-Phenoxy-pyridin-3-yloxymethyl)-morpholine] | ≥ 10000 nM | 3160 nM
13 | Fc1ccc(Oc2ncccc2OC[C@@H]2CNCCO2)cc1F [Example 79, (S)-2-[2-(3,4-Difluoro-phenoxy)-pyridin-3-yloxymethyl]-morpholine] | 9650 nM | 10 nM
14 | c1ccc(O[C@@H](c2ccccc2)[C@@H]2CNCCO2)cc1 [Example 80, (S)-2-((S)-Phenoxy-phenyl-methyl)-morpholine] | 3670 nM | 7.5 nM
15 | Fc1ccc(-c2ccccc2O[C@@H](c2ccccc2)[C@@H]2CNCCO2)cc1 [Example 81, (S)-2-[(S)-(4′-Fluoro-biphenyl-2-yloxy)-phenyl-methyl]-morpholine] | 4320 nM | 9.6 nM
16 | Cc1ccc(-c2ccccc2O[C@@H](c2ccccc2)[C@@H]2CNCCO2)cc1 [Example 82, (S)-2-[(S)-(4′-Methyl-biphenyl-2-yloxy)-phenyl-methyl]-morpholine] | 2610 nM | 11 nM
17 | c1ccc(COc2ccccc2O[C@@H](c2ccccc2)[C@@H]2CNCCO2)cc1 [Example 83, (S)-2-[(S)-(2-Benzyloxy-phenoxy)-phenyl-methyl]-morpholine] | 3120 nM | 3.9 nM
18 | Fc1ccccc1O[C@@H](c1ccccc1)[C@@H]1CNCCO1 [Example 84, (S)-2-[(S)-(2-Fluoro-phenoxy)-phenyl-methyl]-morpholine] | 4860 nM | 7.3 nM
19 | OCc1ccccc1O[C@@H](c1ccccc1)[C@@H]1CNCCO1 [Example 85, (2S,3S)-[2-(Morpholin-2-yl-phenyl-methoxy)-phenyl]-methanol] | 869 nM | 37 nM
20 | Fc1ccccc1-c1ccccc1O[C@@H](c1ccccc1)[C@@H]1CNCCO1 [Example 86, (S)-2-[(S)-(2′-Fluoro-biphenyl-2-yloxy)-phenyl-methyl]-morpholine] | 8090 nM | 14 nM

Row | Structure (SMILES) | Ki [1] | Ki [2]
21 | Fc1ccc(OC(c2ccccn2)[C@H]2CNCCO2)c(F)c1 (stereo partly drawn) [Example 87, (2R,3R)-2-[(2,4-Difluoro-phenoxy)-pyridin-2-yl-methyl]-morpholine] | 953 nM | 2890 nM
22 | Fc1ccc(Oc2ncccc2OC[C@H]2CNCCO2)cc1 [Example 89, (2R)-2-[2-(4-Fluoro-phenoxy)-pyridin-3-yloxymethyl]-morpholine] | ≥ 10000 nM | 4110 nM
23 | CCOc1ccccc1O[C@H](c1cccnc1)[C@H]1CNCCO1 [Example 90, (2R)-2-[(R)-(2-Ethoxy-phenoxy)-pyridin-3-yl-methyl]-morpholine] | 5050 nM | 211 nM
24 | N#Cc1ccccc1O[C@@H](c1ccccc1)[C@@H]1CNCCO1 [Example 93, 2-[(S)-(2S)-morpholin-2-yl(phenyl)methoxy]benzonitrile] | 5600 nM | 11 nM
25 | Fc1ccc(Cl)c(OC(c2ccccc2)[C@@H]2CNCCO2)c1 (stereo partly drawn) [Example 94, (2S)-2-[(2-chloro-5-fluorophenoxy)(phenyl)methyl]morpholine] | 811 nM | 8 nM
26 | COc1cccc(F)c1OC(c1ccccc1)[C@@H]1CNCCO1 (stereo partly drawn) [Example 95, (2S)-2-[(2-fluoro-6-methoxyphenoxy)(phenyl)methyl]morpholine] | 3410 nM | 3 nM
27 | Fc1ccc(F)c(O[C@@H](c2ccccc2)[C@@H]2CNCCO2)c1 [Example 96, (2S)-2-[(S)-(2,5-difluorophenoxy)(phenyl)methyl]morpholine] | 4450 nM | 12 nM
28 | CCCc1ccccc1O[C@@H](c1ccccc1)[C@@H]1CNCCO1 [Example 97, (2S)-2-[(S)-phenyl(2-propylphenoxy)methyl]morpholine] | 471 nM | 9 nM
29 | CCc1ccccc1O[C@@H](c1ccccc1)[C@@H]1CNCCO1 [Example 98, (2S)-2-[(S)-(2-ethylphenoxy)(phenyl)methyl]morpholine] | 1140 nM | 22 nM
30 | c1ccc(COc2ccccc2O[C@@H](c2ccccn2)[C@@H]2CNCCO2)cc1 [Example 102, (2S)-2-[(S)-[2-(benzyloxy)phenoxy](pyridin-2-yl)methyl]morpholine] | 5740 nM | 82 nM
31 | CC(C)c1ccccc1O[C@@H](c1ccccn1)[C@@H]1CNCCO1 [Example 103, (2S)-2-[(S)-(2-isopropylphenoxy)(pyridin-2-yl)methyl]morpholine] | 6070 nM | 13 nM
32 | CCOc1ccccc1O[C@@H](c1cccc(C)n1)[C@@H]1CNCCO1 [Example 107, (2S)-2-[(S)-(2-ethoxyphenoxy)(6-methylpyridin-2-yl)methyl]morpholine] | 3670 nM | 27 nM
33 | CCOc1ccccc1O[C@@H](c1cccc(OC)n1)[C@@H]1CNCCO1 [Example 108, (2S)-2-[(S)-(2-ethoxyphenoxy)(6-methoxypyridin-2-yl)methyl]morpholine] | 676 nM | 28 nM
34 | COc1cccc([C@H](Oc2ccccc2OC(F)(F)F)[C@@H]2CNCCO2)n1 [Example 109, (2S)-2-{(S)-(6-methoxypyridin-2-yl)[2-(trifluoromethoxy)phenoxy]methyl}morpholine] | 364 nM | 16 nM
35 | c1ccc([C@H](Oc2cccc3c2CCC3)[C@@H]2CNCCO2)nc1 [Example 110, (2S)-2-[(S)-(2,3-dihydro-1H-inden-4-yloxy)(pyridin-2-yl)methyl]morpholine] | 356 nM | 8.57 nM
36 | Fc1ccc(C(Oc2c(F)cccc2F)[C@H]2CNCCO2)cc1 (stereo partly drawn) [Example 111, (2R)-2-[(2,6-difluorophenoxy)(4-fluorophenyl)methyl]morpholine] | 237 nM | 105 nM
37 | Brc1ccccc1OC(c1ccccc1)[C@H]1CNCCO1 (stereo partly drawn) [Example 112, (2R)-2-[(2-bromophenoxy)(phenyl)methyl]morpholine] | 105 nM | 17 nM
38 | Fc1cccc(Cl)c1O[C@@H](c1ccccc1)[C@@H]1CNCCO1 [Example 113, (2S)-2-[(S)-(2-chloro-6-fluorophenoxy)(phenyl)methyl]morpholine] | 71 nM | 15 nM
39 | c1ccc(C(Oc2ccccc2C2CC2)[C@H]2CNCCO2)cc1 (stereo partly drawn) [Example 114, (2R)-2-[(2-cyclopropylphenoxy)(phenyl)methyl]morpholine] | 75 nM | 35 nM
